Experimental data taken from patent US20240400521A1, “QUINAZOLINE COMPOUND, COMPOSITION, AND APPLICATION THEREOF” (BEIJING SCITECH-MQ PHARMACEUTICALS LIMITED, priority 2021, published 2024).

Key:
Ba/F3-EGFR-VIII cells = Ba/F3-EGFR-VIII cells (Homo sapiens, UniProt P00533, DELINS30-297G, cells depend on it); experiment: Inhibition of cell proliferation, CTG method, Ba/F3-EGFR-VIII; assay type: cell-based; details: 72 hours, read-out: Ba/F3 EGFRvIII IC50
From the text: (§1) The present application examined the in vitro anti-proliferative activity of the compounds of the present disclosure against in vitro cultured HCC-827, Ba/F3-EGFR-VIII and Ba/F3 EGFR D770_N771insSVD cell lines by CTG method.
(§2) Reagents and consumables: RPMI1640 (ThermoFisher, Cat. No. C11875500BT); DMEM (ThermoFisher, C11995500BT); fetal bovine serum (Hyclone, Cat. No. SV30087.03); 0.25% trypsin-EDTA (ThermoFisher, Cat. No. 25200072); penicillin-streptomycin (Hyclone, Cat. No. SV30010); DMSO (Life Science, Cat. No. 0231-500ML); CTG assay kit (Promega, Cat. No. G9243); 96-well plate (Corning, Cat. No. 3599); multifunctional plate reader (Perkin Elmer, Cat. No. Envision)
(§3) Cell lines: HCC-827 (from ATCC), Ba/F3-EGFR-VIII and Ba/F3 EGFR D770_N771insSVD (all from KYinno Biotechnology (Beijing) Co., Ltd.); all of the above cells were cultured with RPMI1640 medium containing 10% fetal bovine serum, 100 U/mL penicillin, and 100 μg/mL streptomycin in the culture process, and HCC-827 was cultured with DMEM medium containing 10% fetal bovine serum, 100 U/mL penicillin, and 100 μg/mL streptomycin.
(§4) • 1. The assay compound was dissolved with DMSO to form a stock solution and a gradient dilution was performed, followed by dilution with the corresponding medium to obtain a solution with 5-fold working concentration. • 2. Cells in logarithmic growth phase were adjusted to specific cell densities by dilution with culture medium, and 80 μL of cell suspension was added to a 96-well plate, such that plating densities of cells of HCC-827, Ba/F3-EGFR-VIII and Ba/F3 EGFR D770_N771insSVD were all 3000 cells/well. The cells of Ba/F3-EGFR-VIII and Ba/F3 EGFR D770_N771insSVD were used directly in the next step (treatment with compound), whereas the HCC-827 needed to be cultured overnight in a 37° C., 5% carbon dioxide gas incubator to adhere to the wall, and then treated with compounds. • 3. 20 μL of compound solution was added to each well of the 96-well plate that had been inoculated with cells. The highest concentration of the assayed compound was 10 μM, 4-fold serial dilution, a total of 9 concentrations, and duplicate wells. A control group without compound was also set up. • 4. The cells were cultured for another 72 hours, and then cell viability was detected by CTG assay kit. Signal values were read with a multifunctional plate reader (Perkin Elmer). GraphPad Prism software was used to create a dose-response curve and IC50 was calculated.

HER2 kinase = target: T1, HER2 kinase (Homo sapiens, UniProt P04626); experiment: HER2 kinase assay (ULight peptide / Eu-PT66 antibody detection); assay type: biochemical
T1 construct: purchased Carna Biosciences 08-016
T1 sequence (P04626 23-1255): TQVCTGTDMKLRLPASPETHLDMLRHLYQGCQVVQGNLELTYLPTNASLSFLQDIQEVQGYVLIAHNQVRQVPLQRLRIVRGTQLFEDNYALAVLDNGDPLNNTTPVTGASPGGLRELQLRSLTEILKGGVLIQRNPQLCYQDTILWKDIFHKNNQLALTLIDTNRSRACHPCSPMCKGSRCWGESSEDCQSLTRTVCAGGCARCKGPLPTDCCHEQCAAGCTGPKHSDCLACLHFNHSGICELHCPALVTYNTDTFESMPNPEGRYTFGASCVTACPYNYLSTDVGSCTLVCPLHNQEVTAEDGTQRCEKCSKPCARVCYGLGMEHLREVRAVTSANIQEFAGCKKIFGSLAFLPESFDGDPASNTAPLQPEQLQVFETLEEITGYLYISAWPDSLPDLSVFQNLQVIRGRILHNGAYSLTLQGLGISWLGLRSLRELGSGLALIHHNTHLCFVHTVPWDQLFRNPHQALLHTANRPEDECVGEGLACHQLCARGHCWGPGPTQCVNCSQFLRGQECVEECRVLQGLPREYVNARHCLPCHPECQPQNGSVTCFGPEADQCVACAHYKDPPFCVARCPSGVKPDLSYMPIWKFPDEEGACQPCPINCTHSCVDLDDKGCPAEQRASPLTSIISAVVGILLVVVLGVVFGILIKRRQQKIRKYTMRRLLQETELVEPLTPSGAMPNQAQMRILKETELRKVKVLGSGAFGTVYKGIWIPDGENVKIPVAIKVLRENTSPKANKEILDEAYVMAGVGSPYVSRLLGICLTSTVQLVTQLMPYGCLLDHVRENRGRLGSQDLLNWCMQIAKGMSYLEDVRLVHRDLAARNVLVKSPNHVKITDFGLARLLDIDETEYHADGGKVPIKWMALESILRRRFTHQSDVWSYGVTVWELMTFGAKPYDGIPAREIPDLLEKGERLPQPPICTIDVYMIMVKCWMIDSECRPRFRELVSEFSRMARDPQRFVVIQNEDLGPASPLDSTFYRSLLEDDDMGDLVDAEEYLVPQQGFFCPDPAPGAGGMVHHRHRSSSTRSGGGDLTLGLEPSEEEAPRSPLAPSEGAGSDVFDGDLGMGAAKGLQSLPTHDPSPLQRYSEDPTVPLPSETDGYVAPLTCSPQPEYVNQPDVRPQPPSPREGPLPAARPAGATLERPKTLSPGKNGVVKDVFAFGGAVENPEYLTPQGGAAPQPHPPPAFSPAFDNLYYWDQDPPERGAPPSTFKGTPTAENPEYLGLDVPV
From the text: (§5) Reagents and consumables: ULight™-labeled Ploy GT Peptide (Perkin Elmer, Cat. No. TRF-0100-M); ULight™-labeled JAK-1 (Try1023) Peptide (Perkin Elmer, Cat. No. TRF-0121-M); Eu-W1024-labeled Anti-Phosphotyrosine Antibody (PT66) (Perkin Elmer, Cat. No. AD0068); 10×Detection Buffer (Perkin Elmer, Cat. No. CR97-100); HER2 Kinase (Carna Biosciences, Cat. No. 08-016); EGFR kinase (Carna Biosciences, Cat. No. 08-115); HEPES (GIBCO, Cat. No. 15630-080); EGTA (Sigma, Cat. No. 03777-10G); EDTA (Sigma, Cat. No. EDS-100G); MgCl2 (Sigma, Cat. No. 63069-100ML); DTT (Sigma, Cat. No. 43816-10ML); Tween-20 (Sigma, Cat. No. P7949-100ML); DMSO (Life Science, Cat. No. 0231-500ML); 384-well plates (Perkin Elmer, Cat. No. 607290); multifunctional plate reader (Perkin Elmer, Cat. No. Envision)
(§6) Preparation of compound solution: The assay compound was dissolved in DMSO to form a 10 mM stock solution. Prior to use, the compound was diluted to 0.25 mM in DMSO (100 times the final concentration of the diluent) and then subjected to a 3-fold concentration gradient dilution to obtain a total of 11 concentrations. The solution was diluted with buffer to a diluent with 4× the final concentration when the drug was added.
HER2 kinase assay: buffer was prepared, and 40 nM 4× HER2 kinase solution, 40 μM 4× ATP solution, and 400 nM 4×ULight™-labeled Ploy GT Peptide substrate solution were prepared using the buffer. After the preparation was completed, the enzyme was mixed with different concentrations of compounds pre-prepared by dilution, and the mixture was left to stand at room temperature for 5 min. Each concentration was performed in duplicate. The corresponding substrate and ATP were added and the mixture was reacted at room temperature for 120 minutes (with negative and positive controls). After completion of the reaction, PT66 detection antibody was added. The mixture was incubated at room temperature for 60 minutes, and then detected by Envision.
(§7) Data Calculation: the reading of well and inhibition rate were calculated using Excel, wherein reading of well=10000*(well EU665 value)/(well EU615 value), and inhibition rate=[(reading of positive control well−reading of assay well)/(reading of positive control well−reading of negative control well)]*100%. Compound concentrations and corresponding inhibition rates were input into GraphPad Prism for processing to calculate IC50 values.

[1] = target: Ba/F3 EGFR D770_N771insSVD cells (Homo sapiens, UniProt P00533, DUP768-770, cells depend on it); experiment: Inhibition of cell proliferation, CTG method, Ba/F3 EGFR D770_N771insSVD; assay type: cell-based; details: 72 hours, read-out: Ba/F3 EGFR D770_N771insSVD IC50
Ba/F3 EGFR D770_N771insSVD cells, sequence (P00533 with tags, fused parts or gaps DUP768-770): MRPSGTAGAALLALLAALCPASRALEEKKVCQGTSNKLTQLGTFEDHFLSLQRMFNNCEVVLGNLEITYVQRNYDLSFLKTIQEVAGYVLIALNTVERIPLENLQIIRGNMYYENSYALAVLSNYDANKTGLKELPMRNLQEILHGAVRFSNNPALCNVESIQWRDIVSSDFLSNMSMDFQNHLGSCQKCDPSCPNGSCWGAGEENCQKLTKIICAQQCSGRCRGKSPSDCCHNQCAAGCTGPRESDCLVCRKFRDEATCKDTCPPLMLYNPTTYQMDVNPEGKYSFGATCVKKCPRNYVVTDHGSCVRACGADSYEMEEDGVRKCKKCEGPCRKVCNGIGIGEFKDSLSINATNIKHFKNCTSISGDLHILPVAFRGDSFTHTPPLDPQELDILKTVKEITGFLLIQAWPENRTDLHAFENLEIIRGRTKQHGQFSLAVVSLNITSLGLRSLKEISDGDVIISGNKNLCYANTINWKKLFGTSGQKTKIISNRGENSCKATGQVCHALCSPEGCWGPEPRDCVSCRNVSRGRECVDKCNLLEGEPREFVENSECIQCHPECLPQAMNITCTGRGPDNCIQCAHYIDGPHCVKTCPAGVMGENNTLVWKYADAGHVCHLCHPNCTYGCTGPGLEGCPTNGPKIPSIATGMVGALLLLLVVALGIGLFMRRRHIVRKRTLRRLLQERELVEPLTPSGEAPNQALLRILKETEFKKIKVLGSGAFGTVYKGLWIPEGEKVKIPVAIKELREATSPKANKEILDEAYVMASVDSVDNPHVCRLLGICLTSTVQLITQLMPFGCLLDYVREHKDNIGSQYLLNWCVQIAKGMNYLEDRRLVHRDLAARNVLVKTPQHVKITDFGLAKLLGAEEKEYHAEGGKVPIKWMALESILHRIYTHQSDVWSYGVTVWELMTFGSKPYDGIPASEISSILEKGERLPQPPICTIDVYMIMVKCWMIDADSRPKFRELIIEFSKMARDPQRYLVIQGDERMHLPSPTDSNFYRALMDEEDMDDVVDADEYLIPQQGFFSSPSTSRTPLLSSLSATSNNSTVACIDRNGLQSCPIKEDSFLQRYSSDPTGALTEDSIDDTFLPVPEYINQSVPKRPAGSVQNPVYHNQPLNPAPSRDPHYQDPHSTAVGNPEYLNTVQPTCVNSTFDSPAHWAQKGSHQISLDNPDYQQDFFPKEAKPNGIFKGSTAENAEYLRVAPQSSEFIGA
From the text: as §1, §2, §3, §4

HCC-827 cells = experiment: Inhibition of cell proliferation, CTG method, HCC-827; assay type: cell-based; details: Homo sapiens, HCC827, 72 hours
From the text: as §1, §2, §3, §4

EGFR^WT kinase = target: T2, EGFR^WT kinase (Homo sapiens, UniProt P00533); experiment: EGFR^WT kinase assay (ULight peptide / Eu-PT66 antibody detection); assay type: biochemical
T2 construct: purchased Carna Biosciences 08-115
T2 sequence (P00533 25-1210): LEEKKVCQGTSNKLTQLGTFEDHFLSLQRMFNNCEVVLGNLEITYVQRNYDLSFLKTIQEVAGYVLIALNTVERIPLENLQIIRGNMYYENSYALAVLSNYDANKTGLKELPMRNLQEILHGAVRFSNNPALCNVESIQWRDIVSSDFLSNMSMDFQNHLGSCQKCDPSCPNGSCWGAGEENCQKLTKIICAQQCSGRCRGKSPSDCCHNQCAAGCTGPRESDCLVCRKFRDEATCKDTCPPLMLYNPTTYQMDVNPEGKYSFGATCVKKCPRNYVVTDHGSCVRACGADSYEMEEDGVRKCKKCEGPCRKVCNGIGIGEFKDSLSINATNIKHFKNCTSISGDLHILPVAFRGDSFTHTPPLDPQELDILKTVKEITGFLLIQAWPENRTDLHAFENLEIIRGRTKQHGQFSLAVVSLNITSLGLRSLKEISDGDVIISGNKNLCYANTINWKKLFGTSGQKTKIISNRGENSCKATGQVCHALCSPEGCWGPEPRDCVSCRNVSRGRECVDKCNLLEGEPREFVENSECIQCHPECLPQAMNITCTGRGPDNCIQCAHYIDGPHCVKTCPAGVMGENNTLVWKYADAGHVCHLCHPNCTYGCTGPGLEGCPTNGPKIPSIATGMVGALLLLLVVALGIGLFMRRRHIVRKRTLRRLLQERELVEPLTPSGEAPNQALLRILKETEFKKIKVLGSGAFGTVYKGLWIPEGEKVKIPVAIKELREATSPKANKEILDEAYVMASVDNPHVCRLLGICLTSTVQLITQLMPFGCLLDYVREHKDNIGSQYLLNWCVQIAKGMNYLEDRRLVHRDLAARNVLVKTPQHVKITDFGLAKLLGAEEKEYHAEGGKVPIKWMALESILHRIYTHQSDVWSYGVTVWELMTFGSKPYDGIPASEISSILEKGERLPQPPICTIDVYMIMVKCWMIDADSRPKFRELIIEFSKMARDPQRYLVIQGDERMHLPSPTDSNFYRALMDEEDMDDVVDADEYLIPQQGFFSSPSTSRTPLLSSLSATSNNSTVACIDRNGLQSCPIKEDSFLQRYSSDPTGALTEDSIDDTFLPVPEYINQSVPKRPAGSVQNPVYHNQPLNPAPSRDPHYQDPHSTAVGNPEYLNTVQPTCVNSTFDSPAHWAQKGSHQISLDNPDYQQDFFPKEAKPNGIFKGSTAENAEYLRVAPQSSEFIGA
From the text: as §5, §6
EGFR^WT kinase assay: buffer was prepared, and 3.48 nM 4× EGFR kinase solution, 600 μM 4× ATP solution, and 400 nM 4×ULight™-labeled JAK-1 (Try1023) Peptide substrate solution was prepared using the buffer. After the preparation was completed, the enzyme was mixed with different concentrations of compounds pre-prepared by dilution, and the mixture was left to stand at room temperature for 5 min. Each concentration was performed in duplicate. The corresponding substrate and ATP were added and the mixture was reacted at room temperature for 120 minutes (with negative and positive controls). After completion of the reaction, PT66 detection antibody was added. The mixture was incubated at room temperature for 60 minutes, and then detected by Envision.
as §7

Ba/F3-EGFR-VIII cells, sequence (P00533 with tags, fused parts or gaps DELINS30-297G): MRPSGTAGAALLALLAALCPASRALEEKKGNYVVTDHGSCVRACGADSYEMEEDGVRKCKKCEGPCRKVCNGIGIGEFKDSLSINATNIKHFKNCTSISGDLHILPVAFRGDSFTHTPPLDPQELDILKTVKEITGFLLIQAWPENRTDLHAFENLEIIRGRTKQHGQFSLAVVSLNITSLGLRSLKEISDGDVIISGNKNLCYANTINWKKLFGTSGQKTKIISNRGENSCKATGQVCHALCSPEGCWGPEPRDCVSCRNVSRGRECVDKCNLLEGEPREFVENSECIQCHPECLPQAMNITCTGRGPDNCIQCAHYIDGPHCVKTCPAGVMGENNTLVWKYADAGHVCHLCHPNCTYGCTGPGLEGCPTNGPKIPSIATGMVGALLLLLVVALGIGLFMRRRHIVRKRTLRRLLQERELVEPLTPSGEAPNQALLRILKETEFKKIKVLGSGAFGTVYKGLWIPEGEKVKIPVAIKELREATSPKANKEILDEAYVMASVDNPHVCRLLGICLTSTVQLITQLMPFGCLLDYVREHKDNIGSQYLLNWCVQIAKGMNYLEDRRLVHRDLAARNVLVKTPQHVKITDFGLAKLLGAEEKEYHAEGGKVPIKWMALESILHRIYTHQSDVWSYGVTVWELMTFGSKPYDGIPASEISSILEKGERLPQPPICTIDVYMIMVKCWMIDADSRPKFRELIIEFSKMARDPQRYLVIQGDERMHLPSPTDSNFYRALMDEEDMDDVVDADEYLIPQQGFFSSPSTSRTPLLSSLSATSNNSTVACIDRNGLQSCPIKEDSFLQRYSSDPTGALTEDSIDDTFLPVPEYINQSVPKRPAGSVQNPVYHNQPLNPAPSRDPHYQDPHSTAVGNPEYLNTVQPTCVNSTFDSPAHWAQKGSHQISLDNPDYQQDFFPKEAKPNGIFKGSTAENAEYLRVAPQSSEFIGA

| SMILES | GI50 (Ba/F3-EGFR-VIII cells) [nM] | IC50 (HER2 kinase) [nM] | GI50 [1] [nM] | IC50 (HCC-827 cells) [nM] | IC50 (EGFR^WT kinase) [nM] |
| --- | --- | --- | --- | --- | --- |
| CC(C)Oc1c(NC(=O)/C=C/CN(C)C)ccc2ncnc(Nc3cccc(Cl)c3F)c12 [Example 10, (E)-N-(4-((3-chloro-2-fluorophenyl)amino)-5-isopropoxyquinazolin-6-yl)-4-(dimethylamino)but-2-enamide] | 50 to 500 | 100 to 1000 | 50 to 500 | 5 to 50 | 1 to 10 |
| CN(C)C/C=C/C(=O)Nc1ccc2ncnc(Nc3cccc(Cl)c3F)c2c1OCCCO [Example 11, (E)-N-(4-((3-chloro-2-fluorophenyl)amino)-5-(3-hydroxypropoxy)quinazolin-6-yl)-4-(dimethylamino)but-2-enamide] | ≤ 5 | 100 to 1000 | 50 to 500 | ≤ 5 | ≤ 1 |
| CN(C)C/C=C/C(=O)Nc1ccc2ncnc(Nc3cccc(Cl)c3F)c2c1OCC(C)(C)O [Example 13, (E)-N-(4-((3-chloro-2-fluorophenyl)amino)-5-(2-hydroxy-2-methylpropoxy)quinazolin-6-yl)-4-(dimethylamino)but-2-enamide] | ≤ 5 | 10 to 100 | 50 to 500 | ≤ 5 | ≤ 1 |
| CN(C)C/C=C/C(=O)Nc1ccc2ncnc(Nc3cccc(Cl)c3F)c2c1OCCC(C)(C)O [Example 14, (E)-N-(4-((3-chloro-2-fluorophenyl)amino)-5-(3-hydroxy-3-methylbutoxy)quinazolin-6-yl)-4-(dimethylamino)but-2-enamide] | 5 to 50 | 10 to 100 | 50 to 500 | ≤ 5 | 1 to 10 |
| CN(C)C/C=C/C(=O)Nc1ccc2ncnc(Nc3cccc(Cl)c3F)c2c1OCCCF [Example 15, (E)-N-(4-((3-chloro-2-fluorophenyl)amino)-5-(3-fluoropropoxy)quinazolin-6-yl)-4-(dimethylamino)but-2-enamide] | 5 to 50 | 10 to 100 | 50 to 500 | ≤ 5 | ≤ 1 |
| CN(C)C/C=C/C(=O)Nc1ccc2ncnc(Nc3cccc(Cl)c3F)c2c1OCC(F)(F)F [Example 16, (E)-N-(4-((3-chloro-2-fluorophenyl)amino)-5-(2,2,2-trifluoroethoxy)quinazolin-6-yl)-4-(dimethylamino)but-2-enamide] | 5 to 50 | 10 to 100 | 50 to 500 | ≤ 5 | ≤ 1 |
| CN(C)C/C=C/C(=O)Nc1ccc2ncnc(Nc3cccc(Cl)c3F)c2c1OCC(F)F [Example 17, (E)-N-(4-((3-chloro-2-fluorophenyl)amino)-5-(2,2-difluoroethoxy)quinazolin-6-yl)-4-(dimethylamino)but-2-enamide] | 5 to 50 | 100 to 1000 | 50 to 500 | ≤ 5 | ≤ 1 |
| CN(C)C/C=C/C(=O)Nc1ccc2ncnc(Nc3cccc(Cl)c3F)c2c1OCCC(F)(F)F [Example 18, (E)-N-(4-((3-chloro-2-fluorophenyl)amino)-5-(3,3,3-trifluoropropoxy)quinazolin-6-yl)-4-(dimethylamino)but-2-enamide] | 5 to 50 | 100 to 1000 | 50 to 500 | ≤ 5 | ≤ 1 |
| COc1c(NC(=O)/C=C/CN(C)C)ccc2ncnc(Nc3ccc(Cl)c(Cl)c3F)c12 [Example 19, (E)-N-(4-((3,4-dichloro-2-fluorophenyl)amino)-5-methoxyquinazolin-6-yl)-4-(dimethylamino)but-2-enamide] | 5 to 50 | 10 to 100 | 50 to 500 | ≤ 5 | ≤ 1 |
